“Also recorded” adds a separate entry of the source. Each block holds one molecule with its values, some of them ahead of it.
Key:
[1] = test system: TGFβ/SMAD Signaling Pathway SBE reporter cell line; test: TGFβ reporter assay, in vitro small molecule screening (luciferase); type: cell-based; settings: TGFβ stimulation, luminescence
Summary of the method: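 SBE luciferase reporter cells (~0.5×10^6 cells/mL) preincubated with compound 5-6 h at 37 °C in 0.5% FBS MEM, then stimulated with TGFβ (12 ng/mL stock) for 18 h. Luminescence read after luciferase substrate; EC50 from curve fits.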

[2] = target: T1, TGFBR2 (Homo sapiens, UniProt P37173); test: TGFBR2 RBC assay (enzyme inhibition assay, Reaction Biology Corp.); type: biochemical
T1 construct: purchased Reaction Biology Corp
Experimental: Compounds of the disclosure were also assayed by Reaction Biology Corp. using the TGFBR2 RBC assay (enzyme inhibition assay). […] NT refers to not tested.

[3] = test system: TGFβ-inducible genes in PANC-1 tumors; test: Intra-tumoral injection of TGFβR2 inhibitors, PANC-1 xenograft, RT-qPCR of tumors; type: in vivo, nude mice; settings: PANC-1, 2 ug intra-tumoral QD5, tumors 4 h after last injection, vs DMSO vehicle
Experimental: (§1) TGFβR2 inhibitors were tested for their ability to alter expression in vivo of a set of genes reported to be regulated by TGFβ, particularly those associated with tumor CAFs. Two million BXCP3 (ATTC) or 5 million PANC-1 (ATTC) cells in Matrigel (Corning Life Sciences) were inoculated into the flanks of nude mice (JAX Labs) and allowed to grow to approximately 100 mm3 in size before sorting into cohorts for treatment. BXPC3 tumors were treated by intra-tumoral injection (IT) of 2 ug QD5 of either compound 211, compound 171 or equal volume of DMSO vehicle while PANC-1 tumors received 2 ug injections QD5 of compound 211 or vehicle control. Four hours after the last injection tumors were removed and processed for RT-qPCR by homogenization in M tubes (Miltenyi Biotec) using Purelink RNA Kit (Ambion) to isolate RNA and Taqman® RNA to CT 1 Step Kit (Applied Biosystems) with a OneStepPlus Thermocycler. Gene specific primers were obtained from ThermoFisher Scientific. […] Data was analyzed and graphed using GraphPad Prism v8.1.0. Statistical difference for gene mRNA expression between TGFβR2 inhibitor and vehicle treated cohorts was determined using multiple T test comparison with discovery (FDR) by the two-stage linear step-up procedure of Benjamini, Krieger and Yekutieli, with Q=5%. Each row was analyzed individually, without assuming a consistent SD.

[4] = test system: TGFβ-inducible genes in BXPC3 tumors; test: Intra-tumoral injection of TGFβR2 inhibitors, BXPC3 xenograft, RT-qPCR of tumors; type: in vivo, nude mice; settings: BXPC3, 2 ug intra-tumoral QD5, tumors 4 h after last injection, vs DMSO vehicle
Experimental: as §1

[5] = test system: αSMA gene expression in LL97a cells; test: qPCR of TGFβ-induced αSMA mRNA in LL97a IPF fibroblasts; type: cell-based, human; settings: small molecules, TGFβ 24 hours, concentration dependent
Experimental: (§2) The ability of select small molecules to lower a TGFβ 1-induced mRNA were tested in assays with the cell line LL97a (ATCC) as follows. LL97a cells were seeded in 96 well plates at 10,000 cells/well in DMEM+10% FBS+1% NaPyr, +1% L-glut, +1% NEAA, +1% HEPES+0.5% Pen/Strep. The following day test articles and controls were added at varying concentrations in assay media of DMEM+0.5% BSA along with 0.5 ng/mL TGFβ1 (PeproTech Inc.) was added to wells. After 24 hours or 48 hours incubation with TGFβ1 at 37 C in a 5% CO2 environment RNA was prepared from cells and QPCR performed for the TGFβ-inducible genes αSMA and elastin as well as the non-inducible control gene RPLPO with a Tagman® Gene Expression Cells-to-CT 1—Step Kit (Life Technologies Inc.) and with a One Step Plus Thermocycler (Applied Biosystems) as per manufacturers' recommendations. Primer probe sets were obtained from ThermoFisher Scientific.
Compounds 2.1 and 171 were covalently attached to an anti-LRRC15 antibody using different protease cleavable PABC linkers. […] Average DAR level of the purified species was determined by analysis via hydrophobic interaction chromatography (HIC) using TSK-gel butyl NPR (Tosoh Bioscience LLC) and by LCMS (Waters Corp.) and they were tested for their ability to reduce αSMA and elastin gene induction by TGFβ in the LL97a and NHLF human fibroblast cell lines using a qPCRassay. […]

[6] = test system: elastin gene expression in LL97a cells; test: qPCR of TGFβ-induced elastin mRNA in LL97a IPF fibroblasts; type: cell-based, human; settings: small molecules, TGFβ 24 hours, concentration dependent
Experimental: as §2

[7] = target: T2, full length human LRRC15 (human, UniProt Q8TF66 22-581); test: cell-based or functional assay
T2 sequence (looked up): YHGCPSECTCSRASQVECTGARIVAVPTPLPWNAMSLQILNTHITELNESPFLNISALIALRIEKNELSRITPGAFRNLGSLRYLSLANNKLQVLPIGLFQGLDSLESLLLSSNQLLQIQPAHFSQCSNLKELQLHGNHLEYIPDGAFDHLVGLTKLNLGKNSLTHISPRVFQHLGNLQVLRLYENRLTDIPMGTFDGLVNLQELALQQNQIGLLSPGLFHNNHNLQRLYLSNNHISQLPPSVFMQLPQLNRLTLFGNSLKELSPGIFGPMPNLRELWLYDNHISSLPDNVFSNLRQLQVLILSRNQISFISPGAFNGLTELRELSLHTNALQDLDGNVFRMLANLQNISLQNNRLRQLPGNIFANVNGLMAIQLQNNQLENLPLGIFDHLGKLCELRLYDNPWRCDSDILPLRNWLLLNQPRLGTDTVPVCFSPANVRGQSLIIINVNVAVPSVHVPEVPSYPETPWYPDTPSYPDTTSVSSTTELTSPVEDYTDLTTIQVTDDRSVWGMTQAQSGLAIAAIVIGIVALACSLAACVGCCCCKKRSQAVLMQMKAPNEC

T1 sequence (P37173 23-567): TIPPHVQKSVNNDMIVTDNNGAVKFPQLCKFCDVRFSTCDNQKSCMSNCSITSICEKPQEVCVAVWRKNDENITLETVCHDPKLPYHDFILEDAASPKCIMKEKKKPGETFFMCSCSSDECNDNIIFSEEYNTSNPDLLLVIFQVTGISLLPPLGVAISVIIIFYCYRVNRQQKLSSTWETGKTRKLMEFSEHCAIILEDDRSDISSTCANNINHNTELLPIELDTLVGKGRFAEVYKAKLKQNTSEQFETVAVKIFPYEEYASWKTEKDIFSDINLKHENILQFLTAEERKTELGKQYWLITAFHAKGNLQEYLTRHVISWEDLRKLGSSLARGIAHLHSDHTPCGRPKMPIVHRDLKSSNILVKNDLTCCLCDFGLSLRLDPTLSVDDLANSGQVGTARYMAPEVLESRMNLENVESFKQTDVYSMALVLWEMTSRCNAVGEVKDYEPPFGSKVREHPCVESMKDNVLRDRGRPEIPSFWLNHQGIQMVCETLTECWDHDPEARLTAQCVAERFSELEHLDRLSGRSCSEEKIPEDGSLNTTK

- EC50 [1]: < 50 nM
- IC50 [2]: < 50 nM
Molecule: CC(CN)Oc1ccc(-c2cnc(N)c(C(=O)Nc3cnccc3N3CCOCC3)n2)cc1 (centres unmarked) [Compound 211]
- mRNA level of TGFβ-inducible genes in tumors [3]: reduces the mRNA level; also recorded: decreased many TGFβ-inducible gene mRNAs
- mRNA level of TGFβ-inducible genes in tumors [4]: reduce the mRNA level; also recorded: reduced the mRNA level of most TGFβ-inducible genes

- EC50 [1]: 100 to 1000 nM
- IC50 [2]: < 50 nM
Molecule: Nc1ncc(-c2ccc3c(c2)C(O)CC3)nc1C(=O)Nc1cnccc1N1CCOCC1 (centres unmarked) [Compound 250]
- inhibition of TGFβ-induction of αSMA gene expression [5]: inhibits
- inhibition of TGFβ-induction of elastin gene expression [6]: inhibits

- EC50 [1]: 100 to 1000 nM
- IC50 [2]: < 50 nM
Molecule: CN(CCNC(=O)OC(C)(C)C)c1ccc(-c2cnc(N)c(C(=O)Nc3cnccc3N3CCOCC3)n2)cc1 [Compound 267]

- EC50 [1]: > 1000 nM
- IC50 [2]: < 50 nM
Molecule: Nc1ncc(-c2ccc(OCC[C@H](N)C(=O)O)cc2)nc1C(=O)Nc1cnccc1N1CCOCC1 [Compound 268]

- EC50 [1]: 100 to 1000 nM
- IC50 [2]: < 50 nM
Molecule: COC(=O)[C@H](N)CCOc1ccc(-c2cnc(N)c(C(=O)Nc3cnccc3N3CCOCC3)n2)cc1 [Compound 269]

- EC50 [1]: 100 to 1000 nM
- IC50 [2]: < 50 nM
Molecule: COC(=O)[C@@H](CCOc1ccc(-c2cnc(N)c(C(=O)Nc3cnccc3N3CCOCC3)n2)cc1)NC(=O)OCc1ccccc1 [Compound 270]

- EC50 [1]: 100 to 1000 nM
- IC50 [2]: < 50 nM
Molecule: NCCNc1ccc(-c2cnc(N)c(C(=O)Nc3cnccc3N3CCOCC3)n2)cc1 [Compound 271]

- EC50 [1]: 50 to 100 nM
- IC50 [2]: < 50 nM
Molecule: CN(CCN)c1ccc(-c2cnc(N)c(C(=O)Nc3cnccc3N3CCOCC3)n2)cc1 [Compound 272]

- EC50 [1]: 100 to 1000 nM
- IC50 [2]: < 50 nM
Molecule: CC(C)(C)OC(=O)N[C@H]1CCN(c2ccc(-c3cnc(N)c(C(=O)Nc4cnccc4N4CCOCC4)n3)cc2)C1 [Compound 273]

- EC50 [1]: 100 to 1000 nM
- IC50 [2]: < 50 nM
Molecule: CC(C)(C)OC(=O)N[C@@H]1CCN(c2ccc(-c3cnc(N)c(C(=O)Nc4cnccc4N4CCOCC4)n3)cc2)C1 [Compound 274]

- EC50 [1]: > 1000 nM
- IC50 [2]: 50 to 100 nM
Molecule: Nc1ncc(-c2ccc(OCC[C@@H](N)C(=O)O)cc2)nc1C(=O)Nc1cnccc1N1CCOCC1 [Compound 275]

- EC50 [1]: > 1000 nM
- IC50 [2]: < 50 nM
Molecule: Nc1ncc(-c2ccc(OCC[C@@H](NC(=O)OCc3ccccc3)C(=O)O)cc2)nc1C(=O)Nc1cnccc1N1CCOCC1 [Compound 276]

- EC50 [1]: 50 to 100 nM
- IC50 [2]: < 50 nM
Molecule: Nc1ncc(-c2ccc(N3CC[C@H](N)C3)cc2)nc1C(=O)Nc1cnccc1N1CCOCC1 [Compound 277]

- EC50 [1]: 50 to 100 nM
- IC50 [2]: < 50 nM
Molecule: Nc1ncc(-c2ccc(N3CC[C@@H](N)C3)cc2)nc1C(=O)Nc1cnccc1N1CCOCC1 [Compound 278]

- EC50 [1]: 50 to 100 nM
- IC50 [2]: < 50 nM
Molecule: Nc1ncc(-c2ccc(N3CCC(N)CC3)cc2)nc1C(=O)Nc1cnccc1N1CCOCC1 [Compound 279]

- EC50 [1]: 100 to 1000 nM
- IC50 [2]: < 50 nM
Molecule: CC(C)(C)OC(=O)NC1CCN(c2ccc(-c3cnc(N)c(C(=O)Nc4cnccc4N4CCOCC4)n3)cc2)CC1 [Compound 280]

- absolute IC50 of TGFβ1-induced SMAD2 promoter luciferase activity, HEK293 reporter cells expressing human LRRC15 [7]: < 10 nM
B1: anti-LRRC15 humanized IgG1 M25 antibody with Fc null domain conjugated to LP1 (antibody, V domains shown)
VH: EVQLVQSGAEVKKPGASVKVSCKASGYKFSSYWIEWVKQAPGQGLEWIGEILPGSDTTNYNEKFKDRATFTSDTSINTAYMELSRLRSDDTAVYYCARDRGNYRAWFGYWGQGTLVTVSS
VL: DIQMTQSPSSLSASVGDRVTITCRASQDISNYLNWYQQKPGGAVKFLIYYTSRLHSGVPSRFSGSGSGTDYTLTISSLQPEDFATYFCQQGEALPWTFGGGTKVEIK
modifications: linker-payload LP1 on interchain disulfide cysteines, average DAR 2.5-4

- absolute IC50 of TGFβ1-induced SMAD2 promoter luciferase activity, HEK293 reporter cells expressing human LRRC15 [7]: < 10 nM
B2: anti-LRRC15 humanized IgG1 M25 antibody with Fc null domain conjugated to LP10 (antibody, V domains shown)
VH: B1 VH
VL: B1 VL
modifications: linker-payload LP10 on interchain disulfide cysteines, average DAR 2.5-4

— patent US20220362396A1, “AMINO-PYRAZINECARBOXAMIDE COMPOUNDS, CONJUGATES, AND USES THEREOF” (Silverback Therapeutics, Inc., priority 2018, published 2022)
